Data: ChEMBL document CHEMBL1201862, “PubChem BioAssay data set” (2004)
The source made the active and inactive calls.

Experiments:
[1] = biological target: Nucleotide-binding oligomerization domain-containing protein 1 (Homo sapiens, UniProt Q9Y239); experiment: blockers of NOD1 pathway activity – revised, SAR follow-up (AID 2333); format: functional
[2] = biological target: Tumor necrosis factor (Homo sapiens, UniProt P01375); experiment: analog potency on TNFa NF-kB signaling – cell-based, revised, SAR follow-up (AID 2337); format: functional
Chain of Tumor necrosis factor (P01375 whole entry): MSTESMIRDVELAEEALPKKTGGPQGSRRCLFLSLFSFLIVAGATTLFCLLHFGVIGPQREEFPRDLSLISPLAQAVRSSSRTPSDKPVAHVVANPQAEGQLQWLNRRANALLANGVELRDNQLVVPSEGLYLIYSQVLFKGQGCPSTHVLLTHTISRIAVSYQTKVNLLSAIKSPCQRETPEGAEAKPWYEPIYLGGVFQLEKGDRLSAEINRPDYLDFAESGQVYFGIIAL

[3] = biological target: T1, Heat shock factor protein 1 (Mus musculus, UniProt P38532); experiment: decrease of HSF1-responsive luciferase luminescence – cell-based, NIH3T3, dose retest, confirmation (AID 2382); format: functional;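 note: NIH3T3 fibroblasts with HSF1-driven luciferase reporter stressed by proteasome inhibitor MG132; luminescence from HSF1-driven luciferase expression after 8 hours of MG132 stress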
T1 sequence (P38532 whole entry): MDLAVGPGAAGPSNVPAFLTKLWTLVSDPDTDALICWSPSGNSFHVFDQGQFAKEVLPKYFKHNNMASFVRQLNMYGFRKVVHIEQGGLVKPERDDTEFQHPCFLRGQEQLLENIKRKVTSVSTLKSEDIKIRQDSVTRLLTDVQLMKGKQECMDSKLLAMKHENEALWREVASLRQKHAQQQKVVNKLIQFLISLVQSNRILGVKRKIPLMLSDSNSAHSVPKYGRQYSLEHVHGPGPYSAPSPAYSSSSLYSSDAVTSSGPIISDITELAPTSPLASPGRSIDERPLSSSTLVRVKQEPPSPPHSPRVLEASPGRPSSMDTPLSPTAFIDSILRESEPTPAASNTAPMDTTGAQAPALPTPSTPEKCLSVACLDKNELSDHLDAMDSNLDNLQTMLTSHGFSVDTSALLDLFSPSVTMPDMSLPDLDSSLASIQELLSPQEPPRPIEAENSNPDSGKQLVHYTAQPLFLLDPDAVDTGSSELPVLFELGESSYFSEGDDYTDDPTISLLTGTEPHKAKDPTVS

[4] = biological target: Luciferin 4-monooxygenase (Photinus pyralis, UniProt P08659); experiment: inhibition of purified Photinus pyralis luciferase – biochemical, luminescence, dose response (AID 1891)
[5] = biological target: Eukaryotic translation initiation factor 4E (Mus musculus, UniProt P63073); experiment: blockers of eIF4G binding by eIF4E – biochemical, TR-FRET, dose response (AID 855); format: functional;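 note: potency for disrupting eIF4E binding to eIF4GI seen as loss of FRET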
Chain of Eukaryotic translation initiation factor 4E (P63073 whole entry): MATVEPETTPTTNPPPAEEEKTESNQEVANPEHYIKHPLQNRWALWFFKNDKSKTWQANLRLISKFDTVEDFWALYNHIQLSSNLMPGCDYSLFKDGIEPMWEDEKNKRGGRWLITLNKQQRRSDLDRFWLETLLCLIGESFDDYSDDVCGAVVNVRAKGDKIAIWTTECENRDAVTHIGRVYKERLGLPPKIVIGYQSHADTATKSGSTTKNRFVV

[6] = biological target: Dual specificity protein phosphatase 3 (Homo sapiens, UniProt P51452); experiment: VHR phosphatase inhibition, dose response, selectivity assay for STEP inhibitor project, biochemical (AID 602374); format: functional; conditions: read-out: IC50_Mean
[7] = biological target: Tyrosine-protein phosphatase non-receptor type 11 (Homo sapiens, UniProt Q06124); experiment: PTPN11 enzyme inhibitors – biochemical, selectivity assay for STEP inhibitor project, dose response (AID 602367); format: functional; conditions: read-out: IC50_Mean
[8] = biological target: T2, Histone-lysine N-methyltransferase NSD2 (Homo sapiens, UniProt O96028); format: biochemical
T2 sequence (O96028 whole entry): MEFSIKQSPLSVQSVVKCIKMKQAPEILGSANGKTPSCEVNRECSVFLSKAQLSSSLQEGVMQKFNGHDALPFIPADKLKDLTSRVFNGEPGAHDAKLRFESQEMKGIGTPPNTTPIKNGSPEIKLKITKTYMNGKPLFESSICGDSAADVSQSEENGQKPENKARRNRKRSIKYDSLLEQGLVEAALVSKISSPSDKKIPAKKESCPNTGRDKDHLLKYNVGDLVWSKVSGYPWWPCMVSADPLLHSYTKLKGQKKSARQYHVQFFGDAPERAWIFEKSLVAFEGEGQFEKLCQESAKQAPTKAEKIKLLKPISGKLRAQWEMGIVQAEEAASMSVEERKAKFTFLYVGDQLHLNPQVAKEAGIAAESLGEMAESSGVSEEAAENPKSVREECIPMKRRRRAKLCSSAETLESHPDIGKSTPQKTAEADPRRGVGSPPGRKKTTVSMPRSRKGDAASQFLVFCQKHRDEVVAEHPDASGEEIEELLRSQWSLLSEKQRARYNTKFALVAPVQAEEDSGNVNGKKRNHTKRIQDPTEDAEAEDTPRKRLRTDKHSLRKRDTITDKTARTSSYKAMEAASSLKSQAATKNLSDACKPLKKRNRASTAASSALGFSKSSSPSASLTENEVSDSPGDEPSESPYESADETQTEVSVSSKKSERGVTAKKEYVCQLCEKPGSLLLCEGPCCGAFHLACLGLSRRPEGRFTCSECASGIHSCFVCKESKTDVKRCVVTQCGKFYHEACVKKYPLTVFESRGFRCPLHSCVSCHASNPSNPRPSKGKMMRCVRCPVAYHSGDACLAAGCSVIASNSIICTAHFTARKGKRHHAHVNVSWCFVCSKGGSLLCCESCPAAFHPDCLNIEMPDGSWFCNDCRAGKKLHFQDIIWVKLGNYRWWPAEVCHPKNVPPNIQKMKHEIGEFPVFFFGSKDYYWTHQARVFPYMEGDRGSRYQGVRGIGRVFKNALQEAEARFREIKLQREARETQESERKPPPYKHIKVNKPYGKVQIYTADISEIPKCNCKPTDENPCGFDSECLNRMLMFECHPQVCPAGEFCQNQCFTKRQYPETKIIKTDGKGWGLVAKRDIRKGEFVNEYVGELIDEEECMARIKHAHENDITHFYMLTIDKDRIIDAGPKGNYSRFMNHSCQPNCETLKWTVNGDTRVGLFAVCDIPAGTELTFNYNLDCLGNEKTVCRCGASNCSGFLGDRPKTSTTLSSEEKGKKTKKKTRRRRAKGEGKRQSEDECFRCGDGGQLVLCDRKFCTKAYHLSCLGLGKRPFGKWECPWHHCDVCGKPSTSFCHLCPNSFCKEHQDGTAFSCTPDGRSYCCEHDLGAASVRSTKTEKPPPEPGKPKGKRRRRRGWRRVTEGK

[9] = biological target: T3, Hexokinase HKDC1 (Homo sapiens, UniProt Q2TB90); experiment: inhibition of HKDC1 glucose phosphorylation – biochemical, W721R variant, dose response (AID 504729); format: functional
T3 sequence (Q2TB90 whole entry): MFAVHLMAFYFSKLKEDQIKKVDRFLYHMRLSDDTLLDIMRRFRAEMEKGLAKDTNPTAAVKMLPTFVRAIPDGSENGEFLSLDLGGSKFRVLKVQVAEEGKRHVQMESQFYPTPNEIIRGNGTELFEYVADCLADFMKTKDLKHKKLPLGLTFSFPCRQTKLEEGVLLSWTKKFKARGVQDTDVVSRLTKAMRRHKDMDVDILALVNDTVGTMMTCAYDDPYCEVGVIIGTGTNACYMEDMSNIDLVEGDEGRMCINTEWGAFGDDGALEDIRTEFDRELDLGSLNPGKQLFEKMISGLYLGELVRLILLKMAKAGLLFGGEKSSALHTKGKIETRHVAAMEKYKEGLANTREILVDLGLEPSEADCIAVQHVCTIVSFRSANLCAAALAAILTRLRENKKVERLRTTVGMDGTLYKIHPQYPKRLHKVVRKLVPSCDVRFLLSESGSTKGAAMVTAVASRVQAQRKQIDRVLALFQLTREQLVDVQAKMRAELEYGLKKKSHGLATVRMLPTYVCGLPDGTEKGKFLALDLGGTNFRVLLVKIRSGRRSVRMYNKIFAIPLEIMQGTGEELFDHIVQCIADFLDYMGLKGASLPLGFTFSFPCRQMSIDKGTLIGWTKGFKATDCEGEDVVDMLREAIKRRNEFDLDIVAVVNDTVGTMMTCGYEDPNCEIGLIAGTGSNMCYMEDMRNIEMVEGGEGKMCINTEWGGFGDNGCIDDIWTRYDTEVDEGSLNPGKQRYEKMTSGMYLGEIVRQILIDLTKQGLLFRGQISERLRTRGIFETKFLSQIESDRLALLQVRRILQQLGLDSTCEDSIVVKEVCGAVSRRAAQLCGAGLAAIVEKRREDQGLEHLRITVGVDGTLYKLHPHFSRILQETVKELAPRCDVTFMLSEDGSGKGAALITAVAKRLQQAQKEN

[10] = biological target: Tyrosine-protein phosphatase non-receptor type 5 (Homo sapiens, UniProt P54829); experiment: PTPN5 enzyme inhibition – biochemical, fluorescence intensity, uHTS hits, confirmation (AID 602372); format: functional; conditions: read-out: IC50_Mean
[11] = biological target: T4, DNA repair protein RAD52 homolog (Homo sapiens, UniProt P43351); format: functional, biochemical
T4 sequence (P43351 whole entry): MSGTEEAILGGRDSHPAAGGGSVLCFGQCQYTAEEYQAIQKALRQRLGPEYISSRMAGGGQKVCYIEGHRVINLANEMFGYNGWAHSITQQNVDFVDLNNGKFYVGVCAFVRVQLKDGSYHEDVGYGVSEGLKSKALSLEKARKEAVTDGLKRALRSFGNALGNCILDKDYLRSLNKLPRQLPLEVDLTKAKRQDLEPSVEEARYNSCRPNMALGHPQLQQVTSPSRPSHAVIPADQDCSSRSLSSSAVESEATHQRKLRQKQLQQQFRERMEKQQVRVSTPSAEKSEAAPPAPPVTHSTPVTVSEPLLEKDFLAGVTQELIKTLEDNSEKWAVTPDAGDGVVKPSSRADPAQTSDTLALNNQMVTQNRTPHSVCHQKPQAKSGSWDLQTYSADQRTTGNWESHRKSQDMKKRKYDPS

[12] = tested on: HEK293; experiment: cells; conditions: Homo sapiens;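 note: cells exposed to compound for 14 hours overnight before viability readout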
[13] = alpha-synuclein stem-loop luciferase translation blockers – H4 neuroglioma cells, luminescence, confirmation (AID 1988); format: functional, cell-based
[14] = Luminescence Cell-Based Dose Response HTS to Identify Inhibitors of 5'UTR Stem-Loop Driven Prion Protein mRNA Translation in H4 Neuroglioblastoma Cells. [Related pubchem assays: 1827 (Project Summary), 1813 (Primary HTS)]; format: functional
[15] = Trypanosoma cruzi growth suppression in host cells – NIH3T3 host cells, beta-gal luminescence, confirmation (AID 2044); format: functional, cell-based;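 note: intracellular parasites grown in NIH/3T3 mouse fibroblasts as host cells; luminescent beta-galactosidase reporter signal from transgenic T. cruzi replicating inside host cells; inhibitors lower the luminescence signal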
[16] = biological target: T5, Calpain-2 catalytic subunit (Sus scrofa, UniProt P43367); experiment: m-calpain protease blockers, concentration series – biochemical, fluorogenic peptide substrate, dose response (AID 1420); format: functional
T5 sequence (P43367 whole entry): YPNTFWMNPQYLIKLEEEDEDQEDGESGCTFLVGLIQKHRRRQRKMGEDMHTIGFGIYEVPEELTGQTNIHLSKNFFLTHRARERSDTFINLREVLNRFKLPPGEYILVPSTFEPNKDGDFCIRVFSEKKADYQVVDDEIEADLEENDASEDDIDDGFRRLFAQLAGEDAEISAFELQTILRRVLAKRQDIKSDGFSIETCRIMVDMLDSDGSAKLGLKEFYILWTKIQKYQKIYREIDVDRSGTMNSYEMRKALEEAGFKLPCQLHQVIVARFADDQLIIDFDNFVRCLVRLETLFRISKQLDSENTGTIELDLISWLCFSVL

[17] = HEK-293T viability loss after treatment – luminescence, T-cell screen hits, cytotoxicity control for TCR NF-kB inhibitor project, dose response (AID 489026); format: functional, cell-based;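 note: cells exposed to compound about 14 hours before the viability readout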
[18] = luciferase reporter signal suppression in cells – H4 neuroglioma cells, luminescence, dose response (AID 1990); format: functional, cell-based
[19] = cells
[20] = NIH-3T3 fibroblast cytotoxicity, dose response, cytotoxicity control, cell-based, fluorescence, Alamar Blue, secondary assay (AID 2327); format: functional;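 note: NIH-3T3 mouse fibroblasts cultured with fluconazole at 8 µg/mL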
[21] = biological target: Neurotensin receptor type 1 (Homo sapiens, UniProt P30989); format: functional;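 note: Image-based confirmatory dose-response assay measuring agonist activity at NTR1; NTR1-expressing U2OS osteosarcoma cells imaged for beta-arrestin GFP spot formation; agonist potency where compounds increase beta-arrestin recruitment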
Chain of Neurotensin receptor type 1 (P30989 whole entry): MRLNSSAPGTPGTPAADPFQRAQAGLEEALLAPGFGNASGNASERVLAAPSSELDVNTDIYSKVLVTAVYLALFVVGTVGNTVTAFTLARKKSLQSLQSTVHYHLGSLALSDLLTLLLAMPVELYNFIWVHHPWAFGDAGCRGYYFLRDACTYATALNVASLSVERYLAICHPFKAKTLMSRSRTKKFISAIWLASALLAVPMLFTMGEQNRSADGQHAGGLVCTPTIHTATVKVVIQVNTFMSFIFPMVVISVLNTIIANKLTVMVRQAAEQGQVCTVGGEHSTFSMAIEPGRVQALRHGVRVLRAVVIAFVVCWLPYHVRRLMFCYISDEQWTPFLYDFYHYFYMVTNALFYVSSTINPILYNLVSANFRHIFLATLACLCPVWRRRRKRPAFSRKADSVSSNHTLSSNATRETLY

[22] = NIH3T3 cell viability loss – ATP luminescence, mouse fibroblasts, counter-screen, dose response (AID 2010); format: functional, cell-based;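 note: cells exposed to compound for about 90 hours before reading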
[23] = biological target: DNA dC->dU-editing enzyme APOBEC-3G (Homo sapiens, UniProt Q9HC16); experiment: Dose Response confirmation of small molecule APOBEC3G DNA Deaminase Inhibitors via a fluorescence-based single-stranded DNA deaminase assay. [Related pubchem assays (depositor defined):AID493012, AID493028]; format: functional
[24] = Fluorescence-based cell-based high throughput dose response assay for inhibitors of the interaction of nucleotide-binding oligomerization domain containing 2 (NOD2) and the receptor-interacting serine-threonine kinase 2 (RIPK2).; format: functional; conditions: Homo sapiens
[25] = Luminescence Cell-Based Dose Retest to Confirm Inhibitors of Cancer Stem Cells. [Related pubchem assays (depositor defined):AID2717, AID2721]; format: functional; conditions: Homo sapiens
[26] = biological target: T6, Voltage-gated N-type calcium channel alpha-1B subunit/Amyloid beta A4 precursor protein-binding family A member 1 (Homo sapiens, UniProt Q00975+Q02410); experiment: disruptors of Mint-PDZ/N-type channel peptide interaction – biochemical, HTRF, SAR follow-up (AID 2489); format: functional
T6 sequence (Q00975 whole entry): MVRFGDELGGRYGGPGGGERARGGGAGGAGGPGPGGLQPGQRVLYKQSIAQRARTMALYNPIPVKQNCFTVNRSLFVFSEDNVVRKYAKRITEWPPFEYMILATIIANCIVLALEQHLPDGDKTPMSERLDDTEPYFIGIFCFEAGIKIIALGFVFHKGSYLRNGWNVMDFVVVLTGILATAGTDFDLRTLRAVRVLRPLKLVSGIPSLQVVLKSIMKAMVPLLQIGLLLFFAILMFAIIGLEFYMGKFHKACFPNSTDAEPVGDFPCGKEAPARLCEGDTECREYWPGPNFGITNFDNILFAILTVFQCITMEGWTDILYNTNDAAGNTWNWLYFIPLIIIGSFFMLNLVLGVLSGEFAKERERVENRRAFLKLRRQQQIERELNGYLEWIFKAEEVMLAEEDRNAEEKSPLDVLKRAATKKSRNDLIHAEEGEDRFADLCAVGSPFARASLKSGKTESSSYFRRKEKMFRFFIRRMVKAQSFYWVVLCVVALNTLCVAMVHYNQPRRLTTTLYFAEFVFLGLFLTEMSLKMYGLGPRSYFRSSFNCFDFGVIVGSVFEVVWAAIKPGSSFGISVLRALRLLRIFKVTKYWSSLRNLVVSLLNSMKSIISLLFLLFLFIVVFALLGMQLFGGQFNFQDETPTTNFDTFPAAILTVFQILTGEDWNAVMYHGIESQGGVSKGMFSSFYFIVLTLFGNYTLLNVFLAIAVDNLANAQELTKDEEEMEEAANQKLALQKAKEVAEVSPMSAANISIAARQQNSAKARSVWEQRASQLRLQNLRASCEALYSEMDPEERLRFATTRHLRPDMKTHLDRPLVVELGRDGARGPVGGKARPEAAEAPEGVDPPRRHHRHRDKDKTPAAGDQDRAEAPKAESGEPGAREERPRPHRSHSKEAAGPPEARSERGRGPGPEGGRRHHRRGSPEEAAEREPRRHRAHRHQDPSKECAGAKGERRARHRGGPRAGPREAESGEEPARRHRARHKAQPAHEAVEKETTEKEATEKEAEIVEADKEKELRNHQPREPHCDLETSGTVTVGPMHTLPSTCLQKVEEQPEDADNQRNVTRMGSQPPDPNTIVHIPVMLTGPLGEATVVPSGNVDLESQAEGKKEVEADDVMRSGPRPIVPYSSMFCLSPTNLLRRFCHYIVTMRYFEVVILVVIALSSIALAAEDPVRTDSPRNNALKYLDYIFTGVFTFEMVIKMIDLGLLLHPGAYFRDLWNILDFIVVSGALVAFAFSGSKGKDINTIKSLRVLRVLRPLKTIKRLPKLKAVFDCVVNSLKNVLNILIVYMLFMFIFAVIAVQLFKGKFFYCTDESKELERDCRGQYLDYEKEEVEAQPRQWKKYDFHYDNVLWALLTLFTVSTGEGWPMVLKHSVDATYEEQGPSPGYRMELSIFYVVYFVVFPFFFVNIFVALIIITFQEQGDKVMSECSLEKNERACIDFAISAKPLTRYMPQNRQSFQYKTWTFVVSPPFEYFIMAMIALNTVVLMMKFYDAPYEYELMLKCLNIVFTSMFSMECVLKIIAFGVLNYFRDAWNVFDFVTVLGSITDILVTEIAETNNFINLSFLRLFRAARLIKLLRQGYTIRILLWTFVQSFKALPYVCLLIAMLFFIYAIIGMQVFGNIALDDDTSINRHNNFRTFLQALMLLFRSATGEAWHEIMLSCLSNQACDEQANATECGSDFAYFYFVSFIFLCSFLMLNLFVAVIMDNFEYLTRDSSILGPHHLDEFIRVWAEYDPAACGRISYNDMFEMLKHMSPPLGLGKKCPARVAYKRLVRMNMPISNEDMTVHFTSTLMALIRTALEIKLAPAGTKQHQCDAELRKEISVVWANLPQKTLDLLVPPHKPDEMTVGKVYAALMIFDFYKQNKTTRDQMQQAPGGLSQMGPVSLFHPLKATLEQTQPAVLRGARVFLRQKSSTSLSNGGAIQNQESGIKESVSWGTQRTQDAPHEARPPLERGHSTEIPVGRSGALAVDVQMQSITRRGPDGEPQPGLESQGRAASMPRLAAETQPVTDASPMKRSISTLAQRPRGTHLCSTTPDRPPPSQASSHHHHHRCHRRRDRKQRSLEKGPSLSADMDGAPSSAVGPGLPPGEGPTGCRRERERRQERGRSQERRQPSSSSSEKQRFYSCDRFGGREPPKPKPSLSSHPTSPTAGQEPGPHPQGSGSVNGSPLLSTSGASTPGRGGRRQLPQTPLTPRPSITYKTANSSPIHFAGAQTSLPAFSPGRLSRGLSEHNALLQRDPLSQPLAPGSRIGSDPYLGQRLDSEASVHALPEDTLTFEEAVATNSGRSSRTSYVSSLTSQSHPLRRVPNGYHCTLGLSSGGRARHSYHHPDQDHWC
T6 sequence (Q02410 whole entry): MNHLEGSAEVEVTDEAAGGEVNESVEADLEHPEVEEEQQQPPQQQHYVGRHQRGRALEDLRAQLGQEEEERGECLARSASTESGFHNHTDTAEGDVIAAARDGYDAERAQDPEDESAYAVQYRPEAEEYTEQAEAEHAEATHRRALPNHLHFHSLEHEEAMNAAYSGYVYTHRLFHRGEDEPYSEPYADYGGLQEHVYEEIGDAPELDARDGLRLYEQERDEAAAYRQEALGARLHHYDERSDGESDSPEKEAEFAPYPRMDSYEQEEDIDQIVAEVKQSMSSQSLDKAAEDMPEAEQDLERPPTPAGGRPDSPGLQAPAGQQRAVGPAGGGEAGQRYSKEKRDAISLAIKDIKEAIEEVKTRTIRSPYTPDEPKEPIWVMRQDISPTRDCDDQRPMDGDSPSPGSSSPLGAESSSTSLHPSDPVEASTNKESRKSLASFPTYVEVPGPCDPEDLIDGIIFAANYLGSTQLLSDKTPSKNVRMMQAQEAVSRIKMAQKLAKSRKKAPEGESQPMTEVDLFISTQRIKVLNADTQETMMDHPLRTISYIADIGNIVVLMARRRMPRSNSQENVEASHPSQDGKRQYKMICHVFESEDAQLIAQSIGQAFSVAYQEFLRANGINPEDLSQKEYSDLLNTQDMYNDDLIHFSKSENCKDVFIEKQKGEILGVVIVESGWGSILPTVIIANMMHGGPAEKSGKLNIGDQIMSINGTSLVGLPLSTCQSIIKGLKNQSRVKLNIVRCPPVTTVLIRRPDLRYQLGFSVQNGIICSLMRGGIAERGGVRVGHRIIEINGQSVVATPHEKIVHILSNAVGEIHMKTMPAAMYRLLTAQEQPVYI

[27] = biological target: T6, Voltage-gated N-type calcium channel alpha-1B subunit/Amyloid beta A4 precursor protein-binding family A member 1; experiment: disruptors of Mint-PDZ/N-type channel peptide interaction – biochemical, HTRF, set 2, SAR follow-up (AID 434980); format: functional

Chain of Nucleotide-binding oligomerization domain-containing protein 1 (Q9Y239 whole entry, the tested form may be a part): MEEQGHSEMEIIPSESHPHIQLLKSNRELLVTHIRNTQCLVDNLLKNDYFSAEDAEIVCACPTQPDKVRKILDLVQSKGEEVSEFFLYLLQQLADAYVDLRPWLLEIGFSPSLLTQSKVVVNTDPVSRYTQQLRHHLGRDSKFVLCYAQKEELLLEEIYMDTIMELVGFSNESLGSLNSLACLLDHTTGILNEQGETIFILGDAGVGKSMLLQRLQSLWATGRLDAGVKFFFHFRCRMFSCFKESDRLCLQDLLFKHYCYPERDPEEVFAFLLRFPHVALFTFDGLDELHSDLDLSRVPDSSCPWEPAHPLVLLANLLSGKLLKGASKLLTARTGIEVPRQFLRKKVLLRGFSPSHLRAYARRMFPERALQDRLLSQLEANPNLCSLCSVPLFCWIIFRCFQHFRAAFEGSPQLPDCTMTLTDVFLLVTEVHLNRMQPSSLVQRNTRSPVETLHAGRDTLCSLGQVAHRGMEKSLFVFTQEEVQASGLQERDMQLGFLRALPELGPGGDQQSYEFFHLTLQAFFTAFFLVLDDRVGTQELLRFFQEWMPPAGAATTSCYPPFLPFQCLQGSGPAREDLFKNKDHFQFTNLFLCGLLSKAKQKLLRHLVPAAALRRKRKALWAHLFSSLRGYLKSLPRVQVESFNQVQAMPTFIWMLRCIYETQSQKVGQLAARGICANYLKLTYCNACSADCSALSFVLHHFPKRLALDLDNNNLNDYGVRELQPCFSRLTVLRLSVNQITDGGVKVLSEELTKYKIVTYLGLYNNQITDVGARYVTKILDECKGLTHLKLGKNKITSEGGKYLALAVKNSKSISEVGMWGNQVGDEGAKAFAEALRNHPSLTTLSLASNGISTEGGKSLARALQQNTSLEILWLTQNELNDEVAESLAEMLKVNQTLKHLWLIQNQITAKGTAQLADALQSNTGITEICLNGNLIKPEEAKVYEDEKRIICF

CC(C)(C)c1ccc(C(=O)ON=C(N)c2ccccc2)cc1
IC50 [1]: 2.84 µM (active) | IC50 [2]: 1.51 µM (active) | EC50 [3]: < 0.16 µM (active) | EC50 [4]: 5.63 µM (active)

N=C(NCc1ccc2c(c1)OCO2)NC(=O)c1ccccc1
IC50 [5]: 17.3 µM (active) | IC50 [6]: 24.1 µM (inactive) | IC50 [7]: 19 µM (active) | AC50 [8]: 6.74 µM (active) | IC50 [9]: 25.8 µM (inactive) | IC50 [10]: > 80 µM (inactive) | AC50 [11]: 17.2 µM (active)

CC(=O)N1c2ccc(S(=O)(=O)N3CCN(c4ccccc4)CC3)cc2CC1C (stereo not given)
IC50 [12]: > 20 µM (inactive) | IC50 [1]: 11.1 µM (active) | IC50 [2]: 14.1 µM (active)

CCCCCCCCCn1c2c(c(=N)c3c1CCC3)CCCC2
EC50 [13]: 3.52 µM (active) | EC50 [14]: 6.11 µM (active) | EC50 [15]: < 0.1 µM (active) | IC50 [16]: 4.68 µM (active) | IC50 [17]: 42.1 µM (inactive) | EC50 [18]: 6.69 µM (active) | EC50 [19]: 0.011 µM (active) | EC50 [20]: 60.2 µM (active) | EC50 [21]: 6.65 µM (active) | EC50 [22]: 3.44 µM (active)

CCNc1nc(NCC)n2c(SCC(=O)Nc3ccc(CC)cc3)nnc2n1
IC50 [23]: 75.6 µM (active)

COc1ccc(C(=O)/C=C2/C(=O)Nc3ccccc32)c(OC)c1
IC50 [24]: 19.5 µM (inactive) | AC50 [25]: 5.87 µM (active) | EC50 [21]: 24.2 µM (inactive)

O=C(c1cc(-c2ccco2)nc2ccccc12)N1CCC(c2ccccc2)C1 (stereo not given)
IC50 [26]: > 56.8 µM (inactive) | IC50 [27]: 13.6 µM (active)
